From ChEMBL document CHEMBL1201862, “PubChem BioAssay data set” (2004) come the findings set out here.

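Growth conditions: 96-well plates. Treatment: test compound, 48 hours, 5 concentrations. Analysis: linear interpolation between bracketing concentrations; unreached endpoints set to highest concentration. GI50 is the concentration that inhibits growth by half.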 The source made the active and inactive calls. Cut-off read from the data, not from the text of the source: active = GI50 up to about 1.1 µM and inactive = higher.

Test systems include OVCAR-4; SK-OV-3; OVCAR-5; SK-MEL-5; OVCAR-3; 786-0; COLO 205; TK-10; Malme-3M; UACC-257; ACHN; U-251; HCT-15; SK-MEL-2; NCI-H23; IGROV-1; MDA-N; MDA-MB-435; MCF7; Hs-578T.
Common to all, as to assay: DTP human tumour cell line panel, 48 h

One may read the GI50 as the concentration at which growth is held to half of that of the control. Consider `O=[N+]([O-])c1cccc(C2=NOC(C3CCCCC3)C2)c1` (stereo unspecified), for which the GI50 in the experiment with OVCAR-4 is > 100 µM (inactive); in the experiment with SK-OV-3 it was > 100 µM (inactive); in the experiment with OVCAR-5, 92 µM (inactive); with SK-MEL-5, > 100 µM (inactive); in the experiment on OVCAR-3 it was > 100 µM (inactive); in the experiment on 786-0, > 100 µM (inactive). Moreover, the GI50 in the experiment on COLO 205, in the experiment on TK-10, with Malme-3M, in the experiment on UACC-257, in the experiment on ACHN and in the experiment on U-251 was > 100 µM (inactive) throughout. Also, the GI50 in the experiment on HCT-15 was greater than 100 µM; in the experiment with SK-MEL-2, > 100 µM (inactive); in the experiment on NCI-H23, > 100 µM (inactive); in the experiment on IGROV-1, > 100 µM (inactive).

For the compound `COC(=O)CNC(=O)CCSc1nnc(COc2ccc(Cl)cc2)n1-c1ccccc1`, the GI50 with OVCAR-4 was 61.1 µM (inactive); in the experiment with SK-OV-3, > 100 µM (inactive); with OVCAR-5 it was 47.8 µM (inactive); in the experiment with OVCAR-3, 30.9 µM (inactive); in the experiment with MDA-N it was 16.1 µM (inactive); in the experiment on 786-0 it was 20.2 µM (inactive). In addition, the GI50 with COLO 205 was 32.1 µM (inactive); with MDA-MB-435, 24.1 µM (inactive); in the experiment with TK-10, 17.5 µM (inactive); with Malme-3M it was 25.8 µM (inactive); with MCF7 it was 71.3 µM (inactive); in the experiment on UACC-257, 19.1 µM (inactive). In addition, the GI50 in the experiment on ACHN is 34.4 µM (inactive); with U-251, 64.3 µM (inactive); with HCT-15, 74.6 µM; in the experiment on SK-MEL-2, 23.4 µM (inactive); in the experiment on NCI-H23 it was 45.6 µM (inactive); in the experiment with IGROV-1 it was 26.2 µM (inactive).

Turning to `ON=C(CC(O)(C(F)(F)Cl)C(F)(F)Cl)CC(O)(C(F)(F)Cl)C(F)(F)Cl`, the GI50 with OVCAR-4 is 4.92 µM (inactive); in the experiment on SK-OV-3 it was 2.99 µM (inactive); with SK-MEL-5, 4.2 µM (inactive); in the experiment on OVCAR-3, 3.23 µM (inactive); with 786-0, 5.21 µM (inactive); in the experiment with COLO 205, 5.04 µM (inactive). In addition, the GI50 with MDA-MB-435 was 4.07 µM (inactive); with TK-10 it was 7.66 µM (inactive); in the experiment on Malme-3M it was 2.99 µM (inactive); in the experiment on MCF7 it was 3.87 µM (inactive); with UACC-257 it was 4.38 µM (inactive); in the experiment on ACHN it was 3.66 µM (inactive). In addition, the GI50 in the experiment on U-251 was 3.46 µM (inactive); in the experiment on HCT-15, 3.55 µM; in the experiment with SK-MEL-2 it was 3.03 µM (inactive); with NCI-H23, 2.56 µM (inactive); in the experiment on IGROV-1, 6.37 µM (inactive); with Hs-578T, 3.52 µM (inactive).

With `O=[N+]([O-])c1ccccc1S(=O)(=O)c1cc(Cl)cc2c1NCCC2`, the GI50 with OVCAR-4 is > 100 µM (inactive); in the experiment on SK-OV-3, > 100 µM (inactive); in the experiment on OVCAR-5, > 100 µM (inactive); with SK-MEL-5, 29.7 µM (inactive); with OVCAR-3, > 100 µM (inactive); in the experiment on 786-0, 80 µM (inactive). In addition, the GI50 in the experiment with COLO 205 was 33.6 µM (inactive); in the experiment on MDA-MB-435, 35.5 µM (inactive); in the experiment on TK-10 it was > 100 µM (inactive); in the experiment with Malme-3M it was 25.8 µM (inactive); in the experiment on MCF7, 39.4 µM (inactive); with UACC-257 it was 35.6 µM (inactive). The GI50 is 56.6 µM (inactive) in the experiment on ACHN; 65.6 µM in the experiment with HCT-15; 43.6 µM (inactive) with SK-MEL-2; 48.3 µM (inactive) with IGROV-1; 40.1 µM (inactive) with Hs-578T.

Take `COC(=O)CC(CNC(=O)OCc1ccccc1)OCc1ccc(OC)cc1` (stereo unspecified): the GI50 in the experiment with OVCAR-4 was 88.7 µM (inactive); with SK-OV-3, > 100 µM (inactive); in the experiment with OVCAR-5, > 100 µM (inactive); in the experiment on SK-MEL-5, > 100 µM (inactive); in the experiment with OVCAR-3 it was > 100 µM (inactive); in the experiment with MDA-N, > 100 µM (inactive). Besides, the GI50 with 786-0, in the experiment on COLO 205, with MDA-MB-435, in the experiment on TK-10, with Malme-3M and in the experiment on MCF7 was > 100 µM (inactive) throughout. For the same compound, the GI50 in the experiment with UACC-257 was > 100 µM (inactive); in the experiment with ACHN, > 100 µM (inactive); with U-251, > 100 µM (inactive); in the experiment with HCT-15, greater than 100 µM; in the experiment on SK-MEL-2 it was > 100 µM (inactive); in the experiment on NCI-H23, 67.5 µM (inactive). Besides, the GI50 in the experiment on IGROV-1 is > 100 µM (inactive).

On to `O=P(CN1CCOCC1)(c1ccccc1)c1ccccc1`, for which the GI50 in the experiment with OVCAR-4, in the experiment on SK-OV-3, with OVCAR-5, in the experiment with SK-MEL-5, in the experiment on OVCAR-3 and with 786-0 was > 100 µM (inactive) each time. The GI50 with COLO 205, in the experiment on TK-10, in the experiment on Malme-3M, in the experiment with UACC-257, in the experiment with ACHN and with U-251 was > 100 µM (inactive) each time. Also, the GI50 in the experiment with HCT-15 is greater than 100 µM; with SK-MEL-2 it was > 100 µM (inactive); in the experiment with NCI-H23, > 100 µM (inactive); in the experiment with IGROV-1, > 100 µM (inactive).

`COc1ccc(N2CC(=O)N(C(=O)COc3ccc(OCC(=O)N4C(=O)CN(c5ccc(OC)cc5)C4=S)cc3)C2=S)cc1`: the GI50 in the experiment on OVCAR-4 was > 100 µM (inactive); in the experiment with SK-OV-3 it was > 100 µM (inactive); in the experiment with OVCAR-5, > 100 µM (inactive); in the experiment on SK-MEL-5 it was 45.6 µM (inactive); with MDA-N it was > 100 µM (inactive); in the experiment on 786-0, > 100 µM (inactive). The GI50 with COLO 205 was > 100 µM (inactive); in the experiment on MDA-MB-435, > 100 µM (inactive); in the experiment on TK-10, > 100 µM (inactive); in the experiment on Malme-3M, 4.47 µM (inactive); in the experiment on MCF7, 48.6 µM (inactive); with UACC-257 it was 48.3 µM (inactive). Moreover, the GI50 is > 100 µM (inactive) in the experiment on ACHN; > 100 µM (inactive) in the experiment on U-251; greater than 100 µM with HCT-15; > 100 µM (inactive) with SK-MEL-2; 88.1 µM (inactive) in the experiment on NCI-H23; 15.4 µM (inactive) in the experiment on IGROV-1.

For `N#C/C(C(=O)Nc1ccccc1)=C(/N)N1CCOCC1`, the GI50 in the experiment on SK-OV-3, in the experiment with OVCAR-5, in the experiment on SK-MEL-5, with OVCAR-3, with MDA-N and in the experiment with 786-0 was > 100 µM (inactive) throughout. The GI50 with COLO 205, in the experiment with MDA-MB-435, with MCF7, in the experiment on UACC-257, in the experiment with ACHN and with U-251 was > 100 µM (inactive) each time. For the same compound, the 50% growth inhibitory concentration (GI50) in the experiment with HCT-15 was greater than 100 µM; in the experiment on SK-MEL-2, > 100 µM (inactive); in the experiment on NCI-H23, > 100 µM (inactive); in the experiment with IGROV-1, > 100 µM (inactive).

Regarding `CCOC(=O)c1nc2ccc(C(F)(F)F)cc2nc1Oc1ccc(C#N)cc1`, the GI50 was 29.6 µM (inactive) in the experiment with OVCAR-4; 15.7 µM (inactive) with SK-OV-3; 38.3 µM (inactive) in the experiment with SK-MEL-5; 18 µM (inactive) in the experiment on 786-0; 27.4 µM (inactive) in the experiment on COLO 205; 42.9 µM (inactive) in the experiment on MDA-MB-435. Moreover, the GI50 is 30.1 µM (inactive) in the experiment with TK-10; 18.2 µM (inactive) with MCF7; 25.5 µM (inactive) in the experiment on UACC-257; 29.9 µM (inactive) in the experiment on ACHN; 26.3 µM (inactive) in the experiment with U-251; 38.4 µM in the experiment with HCT-15. Moreover, the GI50 in the experiment with SK-MEL-2 was 15.7 µM (inactive); in the experiment with NCI-H23 it was 40.3 µM (inactive); with IGROV-1, 14.5 µM (inactive); in the experiment on Hs-578T it was 14.3 µM (inactive).

In the case of `SCCCSCCSCCCSCCS`, the GI50 is > 100 µM (inactive) in the experiment with OVCAR-4; > 100 µM (inactive) in the experiment on SK-OV-3; > 100 µM (inactive) with OVCAR-5; 91.6 µM (inactive) with SK-MEL-5; > 100 µM (inactive) in the experiment with OVCAR-3; > 100 µM (inactive) with MDA-N. In addition, the GI50 in the experiment with 786-0, in the experiment on COLO 205, in the experiment on MDA-MB-435, in the experiment on MCF7, with UACC-257 and with U-251 was > 100 µM (inactive) throughout. For the same compound, the GI50 in the experiment with HCT-15 is greater than 100 µM; with NCI-H23, 85.9 µM (inactive); with IGROV-1 it was > 100 µM (inactive).

In the case of `O=S(=O)(O)c1ccc(/N=N/c2ccc(/N=N/c3c(O)ccc4ccccc34)c(S(=O)(=O)O)c2)cc1`, the GI50 in the experiment with SK-OV-3, in the experiment with OVCAR-5, in the experiment on SK-MEL-5, with OVCAR-3, with 786-0 and with COLO 205 was > 100 µM (inactive) in each case. Also, the GI50 with MDA-MB-435, with TK-10, in the experiment on Malme-3M, in the experiment with MCF7, in the experiment on UACC-257 and with ACHN was > 100 µM (inactive) each time. Further, the GI50 in the experiment on U-251 was > 100 µM (inactive); with HCT-15, greater than 100 µM; in the experiment on SK-MEL-2, > 100 µM (inactive); in the experiment on NCI-H23, > 100 µM (inactive); with IGROV-1, > 100 µM (inactive); in the experiment on Hs-578T it was > 100 µM (inactive).

`COc1ccc(/C=C/c2cc(O)cc(OC)c2)cc1`: the GI50 in the experiment with OVCAR-4, in the experiment on SK-OV-3, in the experiment with OVCAR-5, with SK-MEL-5, with OVCAR-3 and with 786-0 was > 100 µM (inactive) in each case. The GI50 in the experiment with COLO 205 was > 100 µM (inactive); in the experiment on MDA-MB-435, 68.4 µM (inactive); in the experiment with TK-10, > 100 µM (inactive); in the experiment on Malme-3M, 86.3 µM (inactive); in the experiment with MCF7, > 100 µM (inactive); with UACC-257 it was > 100 µM (inactive). Besides, the GI50 with ACHN is 19.8 µM (inactive); in the experiment with U-251, 28.7 µM (inactive); with HCT-15, 0.855 µM; in the experiment on SK-MEL-2, > 100 µM (inactive); in the experiment on NCI-H23 it was > 100 µM (inactive); in the experiment with IGROV-1 it was > 100 µM (inactive). The GI50 with Hs-578T is > 100 µM (inactive).
